Measured values taken from ChEMBL document CHEMBL5360606, “Discovery of New Binders for DCAF1, an Emerging Ligase Target in the Targeted Protein Degradation Field” (ACS Med Chem Lett, 2023).

Assays:
Polycomb protein EED [1] = molecular target: T1, Polycomb protein EED (Homo sapiens, UniProt O75530); assay: Binding affinity to his-tagged EED (76 to 441 residues) (unknown origin) expressed in Escherichia coli BL21 (DE3) assessed as dissociation constant by SPR analysis
Polycomb protein EED [2] = molecular target: T1, Polycomb protein EED; assay: Binding affinity to his-tagged EED (76 to 441 residues) (unknown origin) expressed in Escherichia coli BL21 (DE3) using H3K27me3 as substrate assessed as dissociation constant

T1 sequence (O75530 whole entry, the tested form may be a part): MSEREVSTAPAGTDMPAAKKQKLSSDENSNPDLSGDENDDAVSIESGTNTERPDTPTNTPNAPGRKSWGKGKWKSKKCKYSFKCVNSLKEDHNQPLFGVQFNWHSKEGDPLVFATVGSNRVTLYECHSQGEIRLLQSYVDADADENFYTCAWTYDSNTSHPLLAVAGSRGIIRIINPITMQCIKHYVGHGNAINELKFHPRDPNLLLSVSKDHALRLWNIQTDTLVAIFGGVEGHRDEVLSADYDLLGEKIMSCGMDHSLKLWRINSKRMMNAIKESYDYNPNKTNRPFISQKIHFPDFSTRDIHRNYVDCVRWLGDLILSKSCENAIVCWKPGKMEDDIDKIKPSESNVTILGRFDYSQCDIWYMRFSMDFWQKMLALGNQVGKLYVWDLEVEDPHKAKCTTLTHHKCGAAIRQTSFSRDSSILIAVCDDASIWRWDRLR

Row | Kd (Polycomb protein EED [2]) [µM] | SMILES | Kd (Polycomb protein EED [1]) [µM]
1 |  | Fc1ccccc1C1=Cc2ccccc2C2=NCCN12 | 13.5
2 | 21 | CC(C)(Cc1ccccc1)C1=Cc2ccccc2C2=NCCN12 | 
3 | 25 | Clc1ccc(C2(C3=Cc4ccccc4C4=NCCN34)CC2)cc1 | 
4 |  | NC1=NCC(c2cccc(Oc3ccc(Cl)cc3)c2)C1 (centres undefined) | ~360
